Experimental data from US12665203B2, “Organo-metallic analytes for nonaqueous redox flow batteries” (The Regents of the University of California, priority 2020, dated 2026).
Like-named read-outs stand apart in the source and are kept apart here.

Tests used:
[1] = symmetric NRFB, cited from earlier work
[2] = Cyclic voltammetry: redox potentials, diffusion coefficients, electron-transfer rate constants; format: physicochemical
[3] = as above; format: physicochemical; details: for D0: calculated using eq 2 (Randles-Sevcik); for D0 / k0: GC electrode; for k0: calculated using eq 4 (Nicholson method)
Experimental: These redox events correspond to the 2b^+/2b couple at +0.08 V, the 2b/2b^− couple at −0.20 V, the 2b^−/2b^2− couple at −0.90 V, and the 2b^2−/2b^3− couple at −1.38 V vs SCE.
The mass transport and electrokinetics of 2b were also evaluated because a RFB analyte must have fast diffusion kinetics (D) and heterogeneous electron-transfer rate (k0) to have a high rate capability. Roughly, k0 of 10^−5 cm/s is considered a minimum requirement, and this minimum requirement is met by most of the recently studied NRFB analytes. The rate is also dependent on the electrode material, and is generally orders of magnitude higher when using Hg, Pt, or Au electrodes. For this reason, kinetic parameters were probed using a glass carbon (GC) button electrode. CV's were recorded of 2b at varying scan rates, and the D values were determined by plotting the current density versus the square root of the scan rate (FIGS. 6A-C). From the slope of the linear fit of this line and the Randles-Sevcik equation (see equations below), D for each redox couple was obtained (eq. 2). Plots of the inverse of the square root of the scan rate versus the transfer parameter (ψ), extracted from the peak to peak separation (ΔEp), were also constructed, so that k0 could be calculated using the Nicholson method (TABLE 5, eq 3-4). For each redox couple D is on the order of 10^−6 cm^2/s, and k0 is on the order of 10^−3 cm/s (TABLE 5).
All potentials are referenced to the SCE couple, and ferrocene was used as an external standard where the E/of ferrocene/ferrocenium is +0.40 V vs. SCE in 0.1 M Bu4NPF6MeCN. Bu4NPF6 was recrystallized from ethanol and placed under vacuum for 72 hours before electrolyte solutions were made. Electrolyte solutions were stored over 3 Å molecular sieves for at least 48 hours before use. Sieves were activated by heating under vacuum at 270° C. for at least 72 hours. UV-Vis spectra were obtained using a 1 cm cuvette using an Agilent 8453 UV-vis spectrophotometer.
The diffusion coefficients for each redox couple were determined by first plotting CV's of 2b at varying scan rates (0.2-8 V/s) (FIG. 10). The diffusion coefficients were then determined from the slope of the peak current density (jp) versus the square root of the scan rate (υ^1/2):
[…], transfer parameter (ψ) was calculated by obtaining the peak to peak separation of each redox couple (ΔEp), at varying scan rates (0.2-8 V/s) (FIG. 10):
[formula] The electron transfer rate constant (k0) was then extracted from the slope of a plot of versus υ^1/2 (FIG. 10):
[formula] where n is the number of electrons transferred, F is the Faraday constant (96485 Cmol^−1), D is the averaged diffusion coefficient for the oxidation and reduction reaction (DO and DR) (cm^2/s), υ is the scan rate (V/s), R is the ideal gas constant (8.314 J/mol-K) and T is the temperature (K). Calculation 4.

[4] = Working electrode screen, extended cycling; details: GC electrodes, 100 cycles
Excerpt: Potential working electrodes for the NRFB cell tests were also screened. GC, reticulated vitreous carbon (RVC, 20, 80 and 100 PPI), graphite rods, and carbon felt which are all commonly employed as working electrodes in NRFB applications were examined.

[5] = Charging/discharging, asymmetric H-cell, anion exchange membrane separator
Experimental: Complex 2b was also tested as an analyte in an asymmetric cell configuration because this allowed us to achieve a cell design where up to four electrons are stored during each charge and discharge cycle. Using an AEM as separator, potentials and currents were initially chosen to maximize the energy density of the cell: storing 4 electrons in the battery. Over 10 cycles and 45 h, a Coulombic efficiency of 98% was observed (FIGS. 17A-C). […] An asymmetric cell with 2b functioning as a four-electron analyte could be revisited as AEM technology is refined.
Charge-discharge studies were performed inside of a glovebox under an inert atmosphere using a CH Instruments Electrochemical Analyzer Model 1400. The custom H-cell was designed by Adams and Chittenden (FIGS. 21A-B and 22) with compartments separated by an AMI-7001S Anion exchange membrane (Membrane International Inc.) or glass frit. If a membrane was used, it was soaked in 0.5 M nBu4NBF4MeCN electrolyte solution for 48 h prior to use. […] In the asymmetric studies, the counter compartment contained only 3.5 mL 0.5 M nBu4NBF4MeCN electrolyte solution, and an isomolded graphite rod counter electrode. […]

[6] = Charging/discharging, symmetric NRFB H-cell, glass frit separator; details: after three weeks of charging/discharging
Experimental: Complex 2b was tested in both symmetric and asymmetric NRFB configurations and in both cases, an anion exchange membrane (AEM), and a glass frit as separator between the working electrode and counter electrode compartments were trialed. […] A current of 0.2 mA for the charge and 0.2 mA for the discharge were chosen as described below. Two consecutive plateaus are observed for each charging and discharging process, indicative of two electron transfer processes (FIGS. 12A-B and 13).
The first plateau at −0.97 V is determined by the oxidation of 2b^− to 2b in the cathodic compartment, and the concurrent reduction of 2b^− to 2b^2− in the anodic compartment. The second plateau at −0.21 V is determined by the oxidation of 2b to 2b^+ in the cathodic compartment, with concurrent reduction of 2b^2− to 2b^3− in the anodic compartment. Upon discharge, the reduction of 2b^+ to 2b and 2b to 2b^− in the cathodic compartment results in a small potential drop, with discharging plateaus of −0.98 and −0.24 V, respectively.
Charge-discharge studies were performed inside of a glovebox under an inert atmosphere using a CH Instruments Electrochemical Analyzer Model 1400. The custom H-cell was designed by Adams and Chittenden (FIGS. 21A-B and 22) with compartments separated by an AMI-7001S Anion exchange membrane (Membrane International Inc.) or glass frit. […]

COCCOCCOCCNc1ccc(NCCOCCOCCOC)c2c1C(=O)c1ccccc1C2=O [(Me-TEG)2DAAQ]
Cactive ([1]; solvent DME): 1000 mM

C1=Cc2nc1c(-c1ccccc1)c1ccc([nH]1)c(-c1ccccc1)c1nc(c(-c3ccccc3)c3ccc([nH]3)c2-c2ccccc2)C=C1 [H2TPP]
Cactive ([1]; solvent CH2Cl2): 10 mM

[(I2P^−)2Al][OTf] [2b]
redox potential, 2b/2b^− couple ([2]; CV, 0.5 M Bu4NBF4 MeCN): −0.20 V vs SCE
redox potential, 2b^2−/2b^3− couple ([2]; CV, 0.5 M Bu4NBF4 MeCN): −1.38 V vs SCE
redox potential, 2b^+/2b couple ([2]; CV, 0.5 M Bu4NBF4 MeCN): +0.08 V vs SCE
redox potential, 2b^−/2b^2− couple ([2]; CV, 0.5 M Bu4NBF4 MeCN): −0.90 V vs SCE
E1/2 ([2]; couple 2b^2+/1+): 0.06 V vs SCE
E1/2 ([3]; couple 2b^0/1−): −1.08 V vs SCE
D0 ([3]; couple 2b^0/1−): 6.3 (5.5) 10^−6 cm^2/s
k0 ([3]; couple 2b^0/1−): 13 ± 2.7 × 10^−3 cm/s
E1/2 ([3]; couple 2b^1+/0): −0.30 V vs SCE
D0 ([3]; couple 2b^1+/0): 5.1 (4.9) 10^−6 cm^2/s
k0 ([3]; couple 2b^1+/0): 8.9 ± 1.2 × 10^−3 cm/s
E1/2 ([3]; couple 2b^1−/2−): −1.51 V vs SCE
D0 ([3]; couple 2b^1−/2−): 9.9 (4.6) 10^−6 cm^2/s
k0 ([3]; couple 2b^1−/2−): 10 ± 2.1 × 10^−3 cm/s
D0 ([3]; couple 2b^2+/1+): 4.7 (6.8) 10^−6 cm^2/s
k0 ([3]; couple 2b^2+/1+): 8.1 ± 1.7 × 10^−3 cm/s
D, order of magnitude ([3]; each redox couple): ~10^−6 cm^2/s
k0, order of magnitude ([3]; each redox couple): ~10^−3 cm/s
stability of analyte remaining in solution [4]: stable to extended cycling in solution
degradation of the analyte ([5]; asymmetric NRFB configuration, multiple cycles, separator not stated): no degradation of the analyte
decomposition of the analyte ([5]; asymmetric cell, AEM, after 45 h): Decomposition of the analyte was observed
degradation of analyte [6]: Partial degradation

[bpy(COOMe)2]3Cr
Cactive ([1]; solvent MeCN): 210 mM

phthalocyanine Mn-nitride [PcMnN]
Cactive ([1]; solvent MeCN): 1 mM
